Measured values published in patent US20250236607A1, “CYCLIN-DEPENDENT KINASE 9 (CDK9) DEGRADERS AND METHODS OF USING THEREOF” (OHIO STATE INNOVATION FOUNDATION, priority 2022, published 2025).
Values after ≈ are worked out from the molar mass of the structure shown. Where two headings read alike, the source gives them in different places.

Experiments:
MV411 cells [1] = assay: MTS cytotoxicity assay against MV411 cells; assay type: cell-based
Description: (§1) The obtained compounds were tested in biological experiments to measure their potency in inhibiting the growth of AML cells and in their degradation of CDK9. These measurements are reported as half-maximum growth inhibitory and half-maximum degradation concentrations, IC50s and DC50s, respectively. Maximum percent degradation (Dmax) values were also obtained during the CDK9 degradation assessments. The common MTS assay was used to acquire the IC50 values, while the DC50 values were obtained using an automated western blot experiment. These values are presented in Table 2, along with pIC50 (log(nM IC50)) to more accurately reflect the differences/lack thereof in in vitro cytotoxicity. The notation “N:N*” represents the number of linker atoms on each side of the rigid triazole ring for a given degrader. Predicted log D values, calculated using the ChemAxon […], are also provided for each degrader. To characterize the physicochemical properties of the new degrader series, two additional assays were performed: a kinetic aqueous solubility assay and the chromatographic log D experiment described earlier. Aqueous solubility is shown in μM while experimentally determined log D is shown as log k′80. Details regarding the execution of each experiment are provided below.

[2] = Chromatographic log D determination (log k′80); assay type: physicochemical; settings: for logk′80: chromatographic log D, PLRP-S column, pH 7.72
In short: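 Samples were diluted from DMSO stock to 122 μM in acetonitrile and run on a PLRP-S column in 20:80 aqueous ammonium acetate/acetonitrile, pH 7.72, at 1 mL/min with UV detection at 337 nm. log k′80 used a fixed 0.3 min dead time derived from a five-compound standard set. Runs were done in triplicate.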

CDK9 [3] = biological target: T1, CDK9 (Homo sapiens, UniProt P50750+Q96SW2); assay: CDK9 degradation, automated western blot, triazole-containing AT7519 degraders (MV411); assay type: cell-based; settings: for DC50: CDK9 degradation, MV411 cells; for Dmax: MV4-11
T1 construct: endogenous in cells
Description: as §1

CDK9 [4] = assay: In vivo CDK9 degradation in mice; settings: preliminary study, AML-xenografted mice
Description: Both degraders were able to degrade CDK9 at low nanomolar concentrations. […] Moreover, dissolution of the test compounds in the 10 mM phosphate buffered saline (PBS) media was very difficult. Solvents, such as dimethylsulfoxide (DMSO), polyethylene glycol and Tween 80©, had to be added in generous quantities to the PBS vehicle to facilitate solubility of the test compounds and allow for the preliminary in vivo assessment that led to the conclusion of inactivity in mice. Significant toxicity, in the form of death and inflammation at the injection site, was also observed due to the inclusion of these additives in the PBS vehicle.

MV411 cells [5] = assay: Cellular potency in human serum versus fetal bovine serum, MV411; assay type: cell-based
Description: FIGS. 3A-3C. In vitro cellular potency (against MV411 cells) in human serum (HS) versus fetal bovine serum (FBS) for compounds 4.7b (FIG. 3A) 4.9c (FIG. 3B), and 4,8a (FIG. 3C).
This contrasts with 4.8a, which loses its potency by almost 20-fold in human serum (FIG. 3C).

Kinetic solubility assay = settings: kinetic solubility, PBS pH 7.4; for solubility at 1.5 h: phosphate buffered saline, pH 7.4, aqueous buffer, kinetic from dmso stock, Solubility (μM)
Description: (§2) Kinetic Solubility Assay. Kinetic solubility (KS) was measured according to Millipore protocol PC2445 EN00. Test compounds were weighed and diluted with DMSO to 10 mM. From the stock solutions as well as blank (100% DMSO) was taken 17.5 μL and diluted to 500 μM with 332.5 μL of 100 mM phosphate Buffered Saline (PPBS) at pH 7.4 in a 96-well quartz plate. From the 500 μM solutions was taken 150 μL and dispensed into a 96-well Millipore filter plate (Product number: MSSLBPC10). In the quartz plate, serial dilutions were performed down to 0.5 μM using the 100 mM PBS solution, leaving 100 μL of each test sample at 11 different concentrations, representing standards. These steps were performed in triplicate, at minimum, for each test compound. Both plates were shaken on an orbital shaker at 150 rpm for 1.5 hours. The contents of the filter plate were filtered and 100 μL of the filtrate from each well was dispensed into the quartz plate containing standards. The quartz plate was then analyzed using a UV plate reader where absorbance was measured at the relevant wavelength for each compound. After blank subtraction, for each test sample, solubility was determined based on the optical density of filtered samples and the equations derived from the corresponding linear standard curve.

AML cells = assay: Drug washout experiment (cytotoxicity); assay type: cell-based; settings: 6 h drugging, 48 h total
Description: To better evaluate the catalytic mechanism of action of this degrader series, a drug washout (WO) experiment was performed. This experiment involved the drugging of cells for six hours after which the cell media was replaced with a drug-free batch.

[6] = pH 7.4
Description: as §2

[7] = Homo sapiens, MV4-11, defined as log(nM IC50), MV411, read-out: pIC50 (converted)
[8] = Homo sapiens, MV4-11, growth inhibition, MV411 cells, MTS, read-out: IC50
[9] = maximum percent CDK9 degradation

T1 sequence (P50750 whole entry): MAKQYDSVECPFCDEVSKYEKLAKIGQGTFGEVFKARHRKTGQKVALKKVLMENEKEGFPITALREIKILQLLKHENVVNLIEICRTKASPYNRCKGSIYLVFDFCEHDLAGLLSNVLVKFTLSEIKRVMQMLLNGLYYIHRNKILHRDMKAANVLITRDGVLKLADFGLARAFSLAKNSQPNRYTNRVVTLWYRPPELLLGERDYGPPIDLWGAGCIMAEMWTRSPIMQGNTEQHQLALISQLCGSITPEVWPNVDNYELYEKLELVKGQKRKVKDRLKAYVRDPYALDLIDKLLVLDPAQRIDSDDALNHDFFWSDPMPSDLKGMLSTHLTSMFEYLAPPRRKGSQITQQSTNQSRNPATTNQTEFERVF
T1 sequence (O60563 whole entry partner): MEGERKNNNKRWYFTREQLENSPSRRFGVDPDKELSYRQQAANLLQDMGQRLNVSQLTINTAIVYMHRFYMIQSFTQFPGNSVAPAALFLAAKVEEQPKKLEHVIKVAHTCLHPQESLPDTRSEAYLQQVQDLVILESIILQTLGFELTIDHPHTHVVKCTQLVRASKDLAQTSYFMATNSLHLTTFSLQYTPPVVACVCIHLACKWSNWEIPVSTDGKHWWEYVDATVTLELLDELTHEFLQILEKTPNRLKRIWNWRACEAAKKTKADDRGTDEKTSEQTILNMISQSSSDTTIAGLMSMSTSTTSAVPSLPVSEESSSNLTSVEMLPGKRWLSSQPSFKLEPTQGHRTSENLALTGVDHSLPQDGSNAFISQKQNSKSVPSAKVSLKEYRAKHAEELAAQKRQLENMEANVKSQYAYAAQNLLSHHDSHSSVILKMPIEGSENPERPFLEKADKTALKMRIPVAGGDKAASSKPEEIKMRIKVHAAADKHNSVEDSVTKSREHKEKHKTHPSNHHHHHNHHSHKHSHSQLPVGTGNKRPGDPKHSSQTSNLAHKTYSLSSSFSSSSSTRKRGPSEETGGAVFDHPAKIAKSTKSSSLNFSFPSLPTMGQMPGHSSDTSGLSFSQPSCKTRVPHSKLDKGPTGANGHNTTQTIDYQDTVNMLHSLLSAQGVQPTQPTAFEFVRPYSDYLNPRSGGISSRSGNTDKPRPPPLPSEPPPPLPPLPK
T1 sequence (Q96SW2 whole entry): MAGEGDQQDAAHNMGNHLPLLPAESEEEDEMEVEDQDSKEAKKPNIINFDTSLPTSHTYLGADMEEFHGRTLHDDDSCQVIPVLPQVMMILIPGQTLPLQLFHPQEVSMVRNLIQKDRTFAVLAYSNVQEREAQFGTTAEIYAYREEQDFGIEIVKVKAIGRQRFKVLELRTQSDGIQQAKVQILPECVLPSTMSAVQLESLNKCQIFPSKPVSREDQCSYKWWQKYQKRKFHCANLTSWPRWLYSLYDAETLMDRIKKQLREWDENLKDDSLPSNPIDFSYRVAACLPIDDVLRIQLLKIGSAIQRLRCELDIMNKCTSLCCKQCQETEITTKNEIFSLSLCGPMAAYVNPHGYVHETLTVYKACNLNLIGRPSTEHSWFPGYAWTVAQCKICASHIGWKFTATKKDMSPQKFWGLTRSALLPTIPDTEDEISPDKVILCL
T1 sequence (Q16531 whole entry partner): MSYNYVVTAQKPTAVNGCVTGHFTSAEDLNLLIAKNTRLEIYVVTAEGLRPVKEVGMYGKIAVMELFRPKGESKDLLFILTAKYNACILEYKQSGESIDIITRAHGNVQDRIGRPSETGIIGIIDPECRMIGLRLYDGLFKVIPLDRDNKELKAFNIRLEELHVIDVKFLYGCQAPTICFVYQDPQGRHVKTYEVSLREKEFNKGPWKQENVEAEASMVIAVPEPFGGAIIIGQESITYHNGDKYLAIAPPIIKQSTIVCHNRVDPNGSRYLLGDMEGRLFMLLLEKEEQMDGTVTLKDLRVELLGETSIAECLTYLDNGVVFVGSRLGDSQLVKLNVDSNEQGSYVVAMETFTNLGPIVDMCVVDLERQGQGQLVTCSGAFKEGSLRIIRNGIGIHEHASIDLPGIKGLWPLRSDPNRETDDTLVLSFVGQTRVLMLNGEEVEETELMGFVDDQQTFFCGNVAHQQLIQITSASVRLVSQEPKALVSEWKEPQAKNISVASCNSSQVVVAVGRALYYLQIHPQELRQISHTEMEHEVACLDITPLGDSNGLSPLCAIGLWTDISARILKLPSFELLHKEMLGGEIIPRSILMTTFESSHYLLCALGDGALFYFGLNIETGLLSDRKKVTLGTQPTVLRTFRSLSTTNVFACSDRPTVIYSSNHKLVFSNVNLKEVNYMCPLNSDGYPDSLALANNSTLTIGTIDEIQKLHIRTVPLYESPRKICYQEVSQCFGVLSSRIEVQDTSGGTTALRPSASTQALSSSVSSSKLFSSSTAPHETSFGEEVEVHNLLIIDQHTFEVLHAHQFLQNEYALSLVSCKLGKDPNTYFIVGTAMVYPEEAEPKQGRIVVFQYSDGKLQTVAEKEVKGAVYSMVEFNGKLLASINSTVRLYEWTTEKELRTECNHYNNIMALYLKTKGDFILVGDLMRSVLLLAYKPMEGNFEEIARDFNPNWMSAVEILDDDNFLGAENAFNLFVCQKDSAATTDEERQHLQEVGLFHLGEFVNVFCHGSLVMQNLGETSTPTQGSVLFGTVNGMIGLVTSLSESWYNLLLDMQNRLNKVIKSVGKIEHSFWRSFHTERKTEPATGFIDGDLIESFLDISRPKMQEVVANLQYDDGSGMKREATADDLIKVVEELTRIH

SMILES | IC50 (MV411 cells [1]; [7]) [nM] | IC50 (MV411 cells [1]; [8]) [nM] | logk′80 [2] | DC50 (CDK9 [3]) [nM] | Dmax (CDK9 [3]; [9]) [%] | in vivo CDK9 degradation (CDK9 [4]) | improvement in cytotoxicity in human serum versus FBS (MV411 cells [5]) [fold] | Solubility (Kinetic solubility assay) [µM] | solubility at 1.5 h (Kinetic solubility assay) [µM] | minimum difference in log k′80 to constitutional isomers [2] | loss of potency in human serum versus FBS (MV411 cells [5]) [fold] | pIC50 (MV411 cells [1]; defined as log(nM IC50), MV411) | IC50 (MV411 cells [1]; growth inhibition, MV411 cells, MTS, read-out: IC50) [nM] | retention of potency after drug washout (AML cells) | Dmax (%) (CDK9 [3]; [9]) | Solubility [6] [µM] | improvement in cytotoxicity over constitutional isomers (MV411 cells [1]; within isomer set) [fold] | improvement in cytotoxicity over 4.3 (MV411 cells [1]; 4.10 versus 4.3)
O=C1CCC(N2C(=O)c3cccc(OCCCn4cc(CCCCN5CCC(NC(=O)c6n[nH]cc6NC(=O)c6c(Cl)cccc6Cl)CC5)nn4)c3C2=O)C(=O)N1 (stereo not drawn) [Compound 4.7b, 4-(2,6-dichlorobenzamido)-N-(1-(4-(1-(3-((2-(2,6-dioxopiperidin-3-yl)-1,3-dioxoisoindolin-4-yl)oxy)propyl)-1H-1,2,3-triazol-4-yl)butyl)piperidin-4-yl)-1H-pyrazole-3-carboxamide] | 200 | 190 | 0.084 | 69.2 | 79.1 | not observed | ~3 | 40.9 (≈ 33.5 µg/mL) | 40 (≈ 32.8 µg/mL) | – | – | – | – | – | – | – | – | –
O=C1CCC(N2C(=O)c3cccc(OCCCCCCCn4cc(CCN5CCC(NC(=O)c6n[nH]cc6NC(=O)c6c(Cl)cccc6Cl)CC5)nn4)c3C2=O)C(=O)N1 (stereo not drawn) [Compound 4.8a, 4-(2,6-dichlorobenzamido)-N-(1-(2-(1-(7-((2-(2,6-dioxopiperidin-3-yl)-1,3-dioxoisoindolin-4-yl)oxy)heptyl)-1H-1,2,3-triazol-4-yl)ethyl)piperidin-4-yl)-1H-pyrazole-3-carboxamide] | 50.1 | 46.9 | 0.146 | 60.1 | 88.3 | – | – | – | 5.65 (≈ 4.79 µg/mL) | 0.030 | ~20 | – | – | – | – | – | – | –
O=C1CCC(N2C(=O)c3cccc(OCCCCCCn4cc(CCCCCCCN5CCC(NC(=O)c6n[nH]cc6NC(=O)c6c(Cl)cccc6Cl)CC5)nn4)c3C2=O)C(=O)N1 (stereo not drawn) [Compound 4.9b] | – | – | 0.176 | 61.4 | – | – | – | – | – | – | – | 1.8 | 63.3 | retain their potency | 78.0 | 4.70 (≈ 4.25 µg/mL) | – | –
O=C1CCC(N2C(=O)c3cccc(OCCCn4cc(CCCCCCCCCCN5CCC(NC(=O)c6n[nH]cc6NC(=O)c6c(Cl)cccc6Cl)CC5)nn4)c3C2=O)C(=O)N1 (stereo not drawn) [Compound 4.9c, 4-(2,6-dichlorobenzamido)-N-(1-(10-(1-(3-((2-(2,6-dioxopiperidin-3-yl)-1,3-dioxoisoindolin-4-yl)oxy)propyl)-1H-1,2,3-triazol-4-yl)decyl)piperidin-4-yl)-1H-pyrazole-3-carboxamide] | 7.94 | 8.8 | 0.197 | 44.8 | 88.6 | – | – | – | 3.42 (≈ 3.09 µg/mL) | 0.013 | 3 | – | – | retain their potency | – | – | ~10 | –
O=C1CCC(N2C(=O)c3cccc(OCCCCCCn4cc(CCCCCN5CCC(NC(=O)c6n[nH]cc6NC(=O)c6c(Cl)cccc6Cl)CC5)nn4)c3C2=O)C(=O)N1 (stereo not drawn) [Compound 4.10, 4-(2,6-dichlorobenzamido)-N-(1-(5-(1-(6-((2-(2,6-dioxopiperidin-3-yl)-1,3-dioxoisoindolin-4-yl)oxy)hexyl)-1H-1,2,3-triazol-4-yl)pentyl)piperidin-4-yl)-1H-pyrazole-3-carboxamide] | 50.1 | 46.6 | 0.140 | 99.9 | 70.1 | – | – | – | 5.46 (≈ 4.78 µg/mL) | – | – | – | – | retain their potency | – | – | – | over 5 fold
